# From PMC5001616 (Nucleic Acids Research, 2016)
# pIC50: −log10 of the molar value. Values joined by “and” are separate entries in the source; they are usually repeats but may differ in a detail not shown here. Identical values can stand only once. Like-named read-outs stand apart in the source and are kept apart here.
# Experiments:
# [1] = test system: WT HIV-1 intasome; conditions: cited from earlier work
# [2] = target: T1, WT HIV-1 IN (Human immunodeficiency virus type 1 group M subtype B, UniProt P12497); conditions: read-out: IC50, inhibition of ST; cited from earlier work
# T1 construct: we tested the 3′-P activity of WT and SH mutant integrases; made in house
# [3] = target: T1, WT HIV-1 IN; test: 3'-processing (3'-P) inhibition, recombinant WT IN, gel-based; format: biochemical
# Method: (§1) Oligonucleotides harboring a tetrahydrofuran group in place of the nucleobase at position −1 (21Ab-1, […]_GT), at position +1 (21Ab+1, […]_T), position +2 (21Ab+2, […]_) and in place of the last 2 bases (21-2Ab, […]__) were purchased from Eurogentec with PAGE purification. 5’-Labeling was performed using T4 polynucleotide kinase (New England Biolabs, Ipswich, MA, USA) with [γ-^32P]-ATP (Perkin-Elmer Life and Analytical Sciences, Boston, MA, USA) according to the manufacturers’ instructions. Unincorporated isotopes were removed using the Mini Quick spin oligo columns (Roche). Duplex substrates were obtained by annealing ‘top’ (21t or 19t) and ‘bottom’ (21b) oligonucleotides at equimolar ratio.
# (§2) WT and mutant INs were purified and their enzymatic activities measured as previously reported ([11]). […] 3′-P and ST reactions were performed at 37°C for 120 min unless otherwise indicated.
# (§3) Linear regressions, fit curves, IC50 determinations, standard deviations, standard error of the mean and statistical analyses (P-values) were generated using GraphPad Prism software 5.0c. Pearson and Spearman correlations were determined using the following equation: […]
# [4] = target: G140S-Q148H (SH) mutant HIV-1 IN (Human immunodeficiency virus type 1 group M subtype B, UniProt P12497, G1287S/Q1295H); conditions: abasic substrates vs normal substrate
# Method: as §1, §2, §3
compound,measurement,setting,value
"C[C@@H]1CCO[C@H]2Cn3cc(C(=O)NCc4ccc(F)cc4F)c(=O)c(O)c3C(=O)N12 [DTG, dolutegravir]",Time bound to the WT HIV-1 intasome relative to EVG,[1]; longer than EVG,26 fold
same,Time bound to the WT HIV-1 intasome relative to RAL,[1]; longer than RAL,8 fold
same,pIC50,[2],7.48
same,Selectivity index (SI) for 3'-P/ST,[3]; IC50 for 3'-P divided by IC50 for ST,50
same,pIC50,"[3]; read-out: IC50, inhibition of 3'-P, canonical CAGT substrate, 120 min",5.79 and 5.80
same,Increase of IC50 for 3'-P on removing either the -1 or +1 base,[4],about 100 fold
